In paper PMC12157126, “Saturation kinetics and specificity of transporters for L-arginine and asymmetric dimethylarginine (ADMA) at the blood-brain and blood-CSF barriers” (PLOS One, 2025):
“And” between values parts separate entries of the source, which are not always exact repeats. Equal values may be shown once. Read-outs that look alike come from different tables or passages of the source.

Columns and labels:
[1] = system: blood-brain and blood-CSF barriers; details: male, BALB/c, mouse, in vivo, 10 min
Experimental: (§1) The in situ brain/choroid plexus perfusion method was performed as previously described and will only be briefly detailed here. […] At the end of the perfusion period a CSF sample was taken from the cisterna magna, the animal was decapitated, the brain removed and samples taken under a Leica S4E L2 stereomicroscope (Leica; Buckinghamshire, UK). […] The circumventricular organs (CVOs) including the choroid plexus, pituitary gland and pineal gland were also sampled. Brain samples were also taken for capillary depletion analysis.
It is specifically used in brain samples (including brain homogenate and brain supernatant) to measure the vascular space at all perfusion time points. At later time points, in particular, it may also represent the capillary endothelial cell volume and/ or diffusion across the brain capillary wall and into the brain interstitial fluid. In the pellet samples it will measure extracellular fluid and may also represent capillary endothelial cell volume. […] It may also represent any accumulation into the cells of the choroid plexus.

[2] = system: blood-brain and blood-CSF barriers; experiment: Self-inhibition experiments: [3H]-ADMA uptake with 0.5-500 μM unlabelled ADMA and kinetic constants (Km, Vmax, Kd); assay type: in vivo, adult male BALB/c mice; parameters: [3H] ADMA, hippocampus / [3H] ADMA, thalamus: unit not given beside the values
NO production = system: NO production; parameters: method as in PMID 17082183; details: cited from earlier work
CAT-1 = CAT-1 transports ADMA; cited from earlier work
[3] = In situ brain/choroid plexus perfusion with capillary depletion: CNS uptake of [3H]-arginine in absence and presence of transporter inhibitors; assay type: in vivo, adult male BALB/c mice; parameters: Difference (Arginine - Sucrose): unit not given here; details: male, BALB/c, mouse, 10 mins, 5ml/min, per mouse
Experimental: as §1
(§2) Both the physiological capillary depletion buffer and dextran solution were maintained at 4 °C to halt any cell metabolism and transport processes, and to reduce any cellular or protein damage due to heat generated from the homogenisation process. The whole brain homogenate was then taken for dextran density centrifugation (5,400 x g) and 4 °C to produce an endothelial cell-enriched pellet and supernatant containing brain parenchyma.
(§3) The transporter proteins these inhibitors target are listed in S1 Table in S1 File.
(§4) % change=RTissue−RInhibition /RTissue× 100 (2)

[4] = system: blood-brain and blood-CSF barriers; experiment: as above; assay type: in vivo, adult male BALB/c mice; parameters: Difference (Arginine - Sucrose): unit not given here; details: for uptake of [3H]-arginine: [14C]-sucrose corrected; for Arginine, tissue/plasma ratio / Difference (Arginine - Sucrose): 10 mins, 5ml/min, per mouse
Experimental: as §1, §2, §3, §4

[5] = CONTROL, 10 mins, 5ml/min, single mice

SMILES: OC[C@H]1O[C@@](CO)(O[C@H]2O[C@H](CO)[C@@H](O)[C@H](O)[C@H]2O)[C@@H](O)[C@@H]1O [[^14C]-sucrose, sucrose]
- distribution into capillary endothelial cells, times lower than into choroid plexus [1]: 31.4 times

SMILES: CN(C)C(N)=NCCC[C@H](N)C(=O)O.Cl.Cl [unlabelled ADMA, N^G,N^G-dimethylarginine dihydrochloride]
- decrease of [3H]-ADMA uptake ([2]; 500 μM unlabelled ADMA, frontal cortex): 79.9%
- effect on uptake of [3H]-ADMA (62.5 nM) ([2]; 0.5, 3.0, 10, 100 and 500μM un-labelled ADMA, all brain regions): significantly self-inhibited
- Difference ([3H] ADMA minus [14C] Sucrose), hippocampus [2, 5]: 0.1991 and 0.2866 and 0.2044 and 0.2062
- Difference ([3H] ADMA minus [14C] Sucrose), hypothalamus [2, 5]: 0.21 and 0.3614 and 0.2746 and 0.3021
- Difference ([3H] ADMA minus [14C] Sucrose), occipital cortex [2, 5]: 0.1943 and 0.2753 and 0.1841 and 0.2419 and 0.2303
- Difference ([3H] ADMA minus [14C] Sucrose), thalamus [2, 5]: 0.1695 and 0.2656 and 0.1763 and 0.2233 and 0.2154
- [3H] ADMA, hippocampus [2, 5]: 0.2134 and 0.305 and 0.2049 and 0.2208 and 0.2239
- [3H] ADMA, hypothalamus [2, 5]: 0.2341 and 0.3969 and 0.298 and 0.3627 and 0.4134
- [3H] ADMA, occipital cortex [2, 5]: 0.2132 and 0.2962 and 0.2074 and 0.2625 and 0.2565
- [3H] ADMA, supernatant [2, 5]: 0.1192 and 0.1611 and 0.1028 and 0.139 and 0.1685
- [3H] ADMA, thalamus [2, 5]: 0.1804 and 0.2881 and 0.1916 and 0.2507 and 0.2348
- inhibition of NO production (NO production; normal ADMA concentrations within cells): 10%
- inhibition of NO production (NO production; plasma ADMA concentrations higher than normal): 70%
- Km (CAT-1): 183 ± 21 µM

SMILES: N=C(N)NCCC[C@H](N)C(=O)O [[^3H]-arginine, L-arginine]
- Kp at 10 min ([3]; cerebellum, Arginine, tissue/plasma ratio, cerebellum, + 4mM BCH): 0.607
- Kp at 10 min ([3]; cerebellum, Difference (Arginine - Sucrose), cerebellum, + 4mM BCH): 0.575
- Kp at 10 min, […] ([3]; cerebellum, with 20 mM L-homoarginine, Arginine, tissue/plasma ratio, cerebellum, + 20mM L-Homoarginine): 0.0312
- Kp at 10 min, […] ([3]; choroid plexus, Arginine, tissue/plasma ratio, choroid plexus, + 4mM BCH): 2.01
- Kp at 10 min ([3]; choroid plexus, Difference (Arginine - Sucrose), choroid plexus, + 4mM BCH): 1.85
- Kp at 10 min ([3]; frontal cortex, Arginine, tissue/plasma ratio, frontal cortex, + 4mM BCH): 0.649
- Kp at 10 min ([3]; frontal cortex, Difference (Arginine - Sucrose), frontal cortex, + 4mM BCH): 0.617
- Kp at 10 min ([3]; frontal cortex, with L-homoarginine 20 mM in the artificial plasma, Arginine, tissue/plasma ratio, frontal cortex, + 20mM L-Homoarginine): 0.0351
- Kp at 10 min ([3]; hippocampus, Arginine, tissue/plasma ratio, hippocampus, + 4mM BCH): 0.477
- Kp at 10 min ([3]; hippocampus, Difference (Arginine - Sucrose), hippocampus, + 4mM BCH): 0.457
- Kp at 10 min ([3]; occipital cortex, Arginine, tissue/plasma ratio, occipital cortex, + 4mM BCH): 0.631
- Kp at 10 min ([3]; occipital cortex, Difference (Arginine - Sucrose), occipital cortex, + 4mM BCH): 0.6
- Kp at 10 min, […] ([3]; occipital cortex, with 20 mM L-homoarginine, Arginine, tissue/plasma ratio, occipital cortex, + 20mM L-Homoarginine): 0.0199
- Kp at 10 min ([3]; whole brain homogenate, Arginine, tissue/plasma ratio, homogenate, + 4mM BCH): 0.353
- Kp at 10 min ([3]; whole brain homogenate, Difference (Arginine - Sucrose), homogenate, + 4mM BCH): 0.332
- Kp at 10 min, […] ([3]; with 20 mM L-homoarginine, Arginine, tissue/plasma ratio, supernatant, + 20mM L-Homoarginine): 0.0216
- uptake into frontal cortex, times higher than into CSF ([4]; 10 minutes): 5.7 times
- uptake into pellet, times lower than into choroid plexus ([4]; 10 minutes): 39.5 times
- uptake of [3H]-arginine ([4]; CSF, 10 minutes): 9.53 ± 2.41 ml.100g^-1
- uptake of [3H]-arginine ([4]; capillary endothelial cell enriched pellet, 10 minutes): 6.47 ± 1.018 ml.100g^-1
- Arginine, tissue/plasma ratio ([4]; caudate nucleus): 0.6618 and 0.8652 and 0.401 and 0.4938 and 0.3347 and 0.5216
- Difference (Arginine - Sucrose) ([4]; caudate nucleus): 0.6456 and 0.7471 and 0.378 and 0.4593 and 0.3101 and 0.4829
- Arginine, tissue/plasma ratio ([4]; choroid plexus): 3.243 and 3.765 and 2.2598 and 3.422 and 1.518 and 2.959
- Difference (Arginine - Sucrose) ([4]; choroid plexus): 3.028 and 3.467 and 2.014 and 2.791 and 1.394 and 2.658
- uptake of [3H]-arginine ([4]; choroid plexus, 10 minutes): 255.86 ± 30.41 ml.100g^-1
- Arginine, tissue/plasma ratio ([4]; frontal cortex): 0.8204 and 0.8688 and 0.3825 and 0.5285 and 0.3141 and 0.5494
- Difference (Arginine - Sucrose) ([4]; frontal cortex): 0.7931 and 0.8428 and 0.3551 and 0.4902 and 0.2926 and 0.505
- uptake of [3H]-arginine ([4]; frontal cortex, 10 minutes): 54.65 ± 9.21 ml.100g^-1
- Arginine, tissue/plasma ratio ([4]; hippocampus): 0.5129 and 0.6918 and 0.3896 and 0.4547 and 0.2706 and 0.4979
- Difference (Arginine - Sucrose) ([4]; hippocampus): 0.4962 and 0.6689 and 0.3625 and 0.4201 and 0.2493 and 0.4621
- Arginine, tissue/plasma ratio ([4]; hypothalamus): 0.9811 and 1.538 and 0.3381 and 0.6951 and 0.2905 and 0.3696
- Difference (Arginine - Sucrose) ([4]; hypothalamus): 0.9489 and 1.477 and 0.3149 and 0.634 and 0.2579 and 0.3397
- Arginine, tissue/plasma ratio ([4]; occipital cortex): 0.6317 and 0.7248 and 0.327 and 0.4186 and 0.2687 and 0.5347
- Difference (Arginine - Sucrose) ([4]; occipital cortex): 0.6113 and 0.7014 and 0.3051 and 0.3893 and 0.251 and 0.4973
- Difference (Arginine - Sucrose) ([4]; pineal gland): 1.49 and 0.1187 and 0.66 and 1.347 and 0.9026 and 0.5878
- Arginine, tissue/plasma ratio ([4]; pituitary gland): 3.254 and 2.641 and 1.189 and 1.192 and 1.144 and 2.275
- Difference (Arginine - Sucrose) ([4]; pituitary gland): 3.08 and 2.441 and 0.973 and 1.116 and 1.019 and 2.001
- Arginine, tissue/plasma ratio ([4]; thalamus): 0.9502 and 1.029 and 0.4051 and 0.5618 and 0.2525 and 0.5368
- Difference (Arginine - Sucrose) ([4]; thalamus): 0.929 and 0.9992 and 0.362 and 0.5168
